Source: patent US20190174812A1, “SOLID ORAL NICOTINE FORMULATION” (Fertin Pharma A/S, priority 2017, published 2019)

Conditions: nicotine concentration raised from 100 microgram/mL to 14,000 microgram/mL

CN1CCCC1c1cccnc1 (stereo not shown) [nicotine]
Decrease of permeability of nicotine across the buccal mucosa (factor): two
